{"source": "ChEMBL document CHEMBL3885861", "about": "“Open TG-GATES”", "species_on_record": "Rattus norvegicus", "assay": "Open TG-GATES - Regimen: Single", "format": "toxicity, organism-based, Sprague-Dawley", "set-up": "regimen Single, gender Male, age 6 weeks", "settings": "in vivo, po, 0 mg/kg, route gavage, dose level Control; for Bas / Eos / Lym / MCHC / MCV / Mono / Neu / RBC / Ret / WBC: tissue Blood; for KIDNEY_L / KIDNEY_R / KIDNEY_TOTAL: tissue Kidney; for LIVER: tissue Liver; for ALP / AST / CRE / DBIL / GLC / IP / K / LDH / Na / PL / RALB / TBIL / TC / TP / gamma-GTP: tissue Plasma"}
{"compound": "CS(=O)(=O)O.Cc1ccc(NC(=O)c2ccc(CN3CCN(C)CC3)cc2)cc1Nc1nccc(-c2cccnc2)n1", "note": "[IMATINIB MESYLATE]", "values": [{"measurement": "Bas", "setting": "3 h", "result": 0, "unit": "%"}, {"measurement": "Eos", "setting": "3 h", "result": 0.6, "unit": "%"}, {"measurement": "Lym", "setting": "3 h", "result": 77.4, "unit": "%"}, {"measurement": "MCHC", "setting": "3 h", "result": 32.7, "unit": "%"}, {"measurement": "MCV", "setting": "3 h", "result": 64.2, "unit": "fL"}, {"measurement": "Mono", "setting": "3 h", "result": 3, "unit": "%"}, {"measurement": "Neu", "setting": "3 h", "result": 18.6, "unit": "%"}, {"measurement": "RBC", "setting": "3 h", "result": 606.4, "unit": "x10_4/ul"}, {"measurement": "Ret", "setting": "3 h", "result": 9.4, "unit": "%"}, {"measurement": "WBC", "setting": "3 h", "result": 98.6, "unit": "x10_2/uL"}, {"measurement": "KIDNEY_L", "setting": "3 h", "result": 0.9, "unit": "g"}, {"measurement": "KIDNEY_R", "setting": "3 h", "result": 0.9, "unit": "g"}, {"measurement": "KIDNEY_TOTAL", "setting": "3 h", "result": 1.7, "unit": "g"}, {"measurement": "LIVER", "setting": "3 h", "result": 9.6, "unit": "g"}, {"measurement": "ALP", "setting": "3 h", "result": 1737, "unit": "IU/L"}, {"measurement": "AST", "setting": "3 h", "result": 82.8, "unit": "IU/L"}, {"measurement": "CRE", "setting": "3 h", "result": 0.2, "unit": "mg/dL"}, {"measurement": "DBIL", "setting": "3 h", "result": 0.004, "unit": "mg/dL"}, {"measurement": "GLC", "setting": "3 h", "result": 184, "unit": "mg/dL"}, {"measurement": "IP", "setting": "3 h", "result": 8.3, "unit": "mg/dL"}, {"measurement": "K", "setting": "3 h", "result": 4.1, "unit": "meq/L"}, {"measurement": "LDH", "setting": "3 h", "result": 215.6, "unit": "IU/L"}, {"measurement": "Na", "setting": "3 h", "result": 143.2, "unit": "meq/L"}, {"measurement": "PL", "setting": "3 h", "result": 163.8, "unit": "mg/dL"}, {"measurement": "RALB", "setting": "3 h", "result": 4.1, "unit": "g/dL"}, {"measurement": "TBIL", "setting": "3 h", "result": 0.012, "unit": "mg/dL"}, {"measurement": "TC", "setting": "3 h", "result": 86.8, "unit": "mg/dL"}, {"measurement": "TP", "setting": "3 h", "result": 5.4, "unit": "g/dL"}, {"measurement": "gamma-GTP", "setting": "3 h", "result": 0.8, "unit": "IU/L"}, {"measurement": "Bas", "setting": "6 h", "result": 0, "unit": "%"}, {"measurement": "Eos", "setting": "6 h", "result": 0.4, "unit": "%"}, {"measurement": "Lym", "setting": "6 h", "result": 80.4, "unit": "%"}, {"measurement": "MCHC", "setting": "6 h", "result": 33.1, "unit": "%"}, {"measurement": "MCV", "setting": "6 h", "result": 63.3, "unit": "fL"}, {"measurement": "Mono", "setting": "6 h", "result": 3, "unit": "%"}, {"measurement": "Neu", "setting": "6 h", "result": 15.2, "unit": "%"}, {"measurement": "RBC", "setting": "6 h", "result": 615.4, "unit": "x10_4/ul"}, {"measurement": "Ret", "setting": "6 h", "result": 11.2, "unit": "%"}, {"measurement": "WBC", "setting": "6 h", "result": 112.4, "unit": "x10_2/uL"}, {"measurement": "KIDNEY_L", "setting": "6 h", "result": 0.8, "unit": "g"}, {"measurement": "KIDNEY_R", "setting": "6 h", "result": 0.8, "unit": "g"}, {"measurement": "KIDNEY_TOTAL", "setting": "6 h", "result": 1.7, "unit": "g"}, {"measurement": "LIVER", "setting": "6 h", "result": 8.7, "unit": "g"}, {"measurement": "ALP", "setting": "6 h", "result": 1529.4, "unit": "IU/L"}, {"measurement": "AST", "setting": "6 h", "result": 72.4, "unit": "IU/L"}, {"measurement": "CRE", "setting": "6 h", "result": 0.2, "unit": "mg/dL"}, {"measurement": "DBIL", "setting": "6 h", "result": 0.006, "unit": "mg/dL"}, {"measurement": "GLC", "setting": "6 h", "result": 175.8, "unit": "mg/dL"}, {"measurement": "IP", "setting": "6 h", "result": 9.6, "unit": "mg/dL"}, {"measurement": "K", "setting": "6 h", "result": 4.2, "unit": "meq/L"}, {"measurement": "Na", "setting": "6 h", "result": 139.7, "unit": "meq/L"}, {"measurement": "PL", "setting": "6 h", "result": 152.4, "unit": "mg/dL"}, {"measurement": "RALB", "setting": "6 h", "result": 4, "unit": "g/dL"}, {"measurement": "TBIL", "setting": "6 h", "result": 0.022, "unit": "mg/dL"}, {"measurement": "TC", "setting": "6 h", "result": 86.4, "unit": "mg/dL"}, {"measurement": "TP", "setting": "6 h", "result": 5.5, "unit": "g/dL"}, {"measurement": "gamma-GTP", "setting": "6 h", "result": 0.9, "unit": "IU/L"}, {"measurement": "Bas", "setting": "9 h", "result": 0, "unit": "%"}, {"measurement": "Eos", "setting": "9 h", "result": 0.8, "unit": "%"}, {"measurement": "Lym", "setting": "9 h", "result": 76.4, "unit": "%"}, {"measurement": "MCHC", "setting": "9 h", "result": 33.4, "unit": "%"}, {"measurement": "MCV", "setting": "9 h", "result": 62.3, "unit": "fL"}, {"measurement": "Mono", "setting": "9 h", "result": 2.2, "unit": "%"}, {"measurement": "Neu", "setting": "9 h", "result": 20.4, "unit": "%"}, {"measurement": "RBC", "setting": "9 h", "result": 617, "unit": "x10_4/ul"}, {"measurement": "Ret", "setting": "9 h", "result": 9, "unit": "%"}, {"measurement": "WBC", "setting": "9 h", "result": 86, "unit": "x10_2/uL"}, {"measurement": "KIDNEY_L", "setting": "9 h", "result": 0.9, "unit": "g"}, {"measurement": "KIDNEY_R", "setting": "9 h", "result": 0.9, "unit": "g"}, {"measurement": "KIDNEY_TOTAL", "setting": "9 h", "result": 1.8, "unit": "g"}, {"measurement": "LIVER", "setting": "9 h", "result": 8.1, "unit": "g"}, {"measurement": "ALP", "setting": "9 h", "result": 1372, "unit": "IU/L"}, {"measurement": "AST", "setting": "9 h", "result": 76.6, "unit": "IU/L"}, {"measurement": "CRE", "setting": "9 h", "result": 0.2, "unit": "mg/dL"}, {"measurement": "DBIL", "setting": "9 h", "result": 0.01, "unit": "mg/dL"}, {"measurement": "GLC", "setting": "9 h", "result": 170, "unit": "mg/dL"}, {"measurement": "IP", "setting": "9 h", "result": 9.5, "unit": "mg/dL"}, {"measurement": "K", "setting": "9 h", "result": 3.9, "unit": "meq/L"}, {"measurement": "LDH", "setting": "9 h", "result": 175, "unit": "IU/L"}, {"measurement": "Na", "setting": "9 h", "result": 140.3, "unit": "meq/L"}, {"measurement": "PL", "setting": "9 h", "result": 140.2, "unit": "mg/dL"}, {"measurement": "RALB", "setting": "9 h", "result": 4.1, "unit": "g/dL"}, {"measurement": "TBIL", "setting": "9 h", "result": 0.016, "unit": "mg/dL"}, {"measurement": "TC", "setting": "9 h", "result": 81.8, "unit": "mg/dL"}, {"measurement": "TP", "setting": "9 h", "result": 5.5, "unit": "g/dL"}, {"measurement": "gamma-GTP", "setting": "9 h", "result": 0.8, "unit": "IU/L"}, {"measurement": "Bas", "setting": "24 h", "result": 0, "unit": "%"}, {"measurement": "Eos", "setting": "24 h", "result": 1, "unit": "%"}, {"measurement": "Lym", "setting": "24 h", "result": 81.4, "unit": "%"}, {"measurement": "MCHC", "setting": "24 h", "result": 32.9, "unit": "%"}, {"measurement": "MCV", "setting": "24 h", "result": 65.5, "unit": "fL"}, {"measurement": "Mono", "setting": "24 h", "result": 2.4, "unit": "%"}, {"measurement": "Neu", "setting": "24 h", "result": 14.6, "unit": "%"}, {"measurement": "RBC", "setting": "24 h", "result": 607.4, "unit": "x10_4/ul"}, {"measurement": "Ret", "setting": "24 h", "result": 9.3, "unit": "%"}, {"measurement": "WBC", "setting": "24 h", "result": 100.4, "unit": "x10_2/uL"}, {"measurement": "KIDNEY_L", "setting": "24 h", "result": 0.9, "unit": "g"}, {"measurement": "KIDNEY_R", "setting": "24 h", "result": 0.9, "unit": "g"}, {"measurement": "KIDNEY_TOTAL", "setting": "24 h", "result": 1.8, "unit": "g"}, {"measurement": "LIVER", "setting": "24 h", "result": 10, "unit": "g"}, {"measurement": "ALP", "setting": "24 h", "result": 1682.4, "unit": "IU/L"}, {"measurement": "AST", "setting": "24 h", "result": 68.2, "unit": "IU/L"}, {"measurement": "CRE", "setting": "24 h", "result": 0.2, "unit": "mg/dL"}, {"measurement": "DBIL", "setting": "24 h", "result": 0, "unit": "mg/dL"}, {"measurement": "GLC", "setting": "24 h", "result": 199.8, "unit": "mg/dL"}, {"measurement": "IP", "setting": "24 h", "result": 7.8, "unit": "mg/dL"}, {"measurement": "K", "setting": "24 h", "result": 4.2, "unit": "meq/L"}, {"measurement": "LDH", "setting": "24 h", "result": 195.2, "unit": "IU/L"}, {"measurement": "Na", "setting": "24 h", "result": 142.7, "unit": "meq/L"}, {"measurement": "PL", "setting": "24 h", "result": 149, "unit": "mg/dL"}, {"measurement": "RALB", "setting": "24 h", "result": 4.1, "unit": "g/dL"}, {"measurement": "TBIL", "setting": "24 h", "result": 0.004, "unit": "mg/dL"}, {"measurement": "TC", "setting": "24 h", "result": 75.2, "unit": "mg/dL"}, {"measurement": "TP", "setting": "24 h", "result": 5.8, "unit": "g/dL"}, {"measurement": "gamma-GTP", "setting": "24 h", "result": 1, "unit": "IU/L"}]}
